Experimental data as given in patent publication US20240325469A1, “COMPOSITION FOR PREVENTION OR TREATMENT OF COGNITIVE DYSFUNCTION AND INTESTINAL DYSFUNCTION, COMPRISING LACTOBACILLUS PARACASEI NK112, CUSCUTA AUSTRALIS EXTRACT, AND CUSCUTA JAPONICA EXTRACT” (MTHERA PHARMA CO., LTD., priority 2021, published 2024).

Legend:
Assay type in all cases: in vivo, mouse
[1] = system: male C57BL/6 mice administered with Escherichia coli; experiment: Elevated plus maze (EPM) test, Escherichia coli-induced model; settings: E. coli model mice; once a day for 5 days; NK112 samples 1×10^9 CFU, fluoxetine 1 mg/kg
Protocol: 5-week-old male C57BL/6 mice having a body weight of 19 to 21 g were divided into a normal group and an experimental group, with 6 mice per group, and acclimatized to the laboratory for 1 week, and then the experiment was performed. The experimental group was administered with Escherichia coli (1×10^9 CFU/mouse/day) orally once a day for 5 days, and the normal group was administered with physiological saline. […]
The elevated plus maze is an experimental apparatus to measure the level of anxiety, depression, or stress, etc. […] The movements of the mouse placed in the elevated plus maze were recorded in a room with a brightness of 20 lux and a video camera installed above.
Specifically, a C57BL/6 mouse was placed facing the open arm with its head in the exact center of the elevated plus maze, and the time and number of times it spent in the open arms and the enclosed arms for 5 minutes were measured. […]
Of the total experimental time, time spent in open arms (OT) was calculated as [time spent in open arms/(time spent in open arms+time spent in enclosed arms)]×100. Open arm entry (OE) was calculated as [open arm entry/(open arm entry+enclosed arm entry)]×100. […]

[2] = system: male C57BL/6 mice administered with Escherichia coli; experiment: Forced swimming test (FST), Escherichia coli-induced model; settings: E. coli model mice; once a day for 5 days; NK112 samples 1×10^9 CFU, fluoxetine 1 mg/kg
Protocol: (§1) 5-week-old male C57BL/6 mice having a body weight of 19 to 21 g were divided into a normal group and an experimental group, with 6 mice per group, and acclimatized to the laboratory for 1 week, and then the experiment was performed. The experimental group was administered with Escherichia coli (1×10^9 CFU/mouse/day) orally once a day for 5 days, and the normal group was administered with physiological saline.
(§2) Thereafter, 1×10^9 CFU heat-treated lactic acid bacteria (heat-killed NK112), 1×10^9 CFU lactic acid bacteria lysate supernatant (NK112 cytoplasmic component), 1×10^9 CFU lactic acid bacteria lysate precipitate (NK112 cell wall component), or positive control group drug (fluoxetine 1 mg/kg) was administered once a day for 5 days, respectively.
In the case of heat-treated lactic acid bacteria (heat-killed NK112), the precipitate obtained by centrifuging the lactic acid bacteria culture solution in MRS medium was suspended to 1×10^10 CFU/ml, and then heat-treated twice at 70° C. for 10 minutes each to prepare them. […]
A water tank with a height of 40 cm and a diameter of 20 cm was filled with water at a temperature of 25±1° C. to a height of 30 cm. […] The first 2 minutes were not measured as adaptation time, and the immobility time of the experimental animals was measured for the next 4 minutes. […]

[3] = system: male C57BL/6 mice administered with Escherichia coli; experiment: Tail suspension test (TST), Escherichia coli-induced model; settings: E. coli model mice; once a day for 5 days; NK112 samples 1×10^9 CFU, fluoxetine 1 mg/kg
Protocol: as §1
as §2, with “respectively. […]” for “respectively.”
According to the method of Steru et al. (Steru L, Chermat R, Thierry B, Simon P (1985) The tail suspension test: A new method for screening antidepressants in mice, Psychopharmacology, Vol. 85; pp. 367-370), A fixation apparatus was attached to the end of the mouse's tail about 1 cm, and then it was hung 50 cm away from the ground in a container with a diameter of 35 cm and a height of 50 cm. The immobility time of the experimental animals was measured for a total of 6 minutes.

corticosterone in blood = experiment: Corticosterone in blood, Escherichia coli-induced model; settings: E. coli model mice; once a day for 5 days; NK112 samples 1×10^9 CFU, fluoxetine 1 mg/kg
Protocol: as §1, §2
In addition, the concentration of corticosterone in blood, which induces anxiety, in each mouse was also measured and shown in Table 2 below.

[4] = system: male C57BL/6 mice administered with Escherichia coli; experiment: Novel object recognition test (NORT), Escherichia coli-induced model; settings: recognition index; E. coli model mice; donepezil 5 mg/kg
Protocol: The mouse was moved to the behavior observation room and acclimatized for 5 minutes. Thereafter, in a 3-minute exposure trial, two identical objects (1 set) were placed in a box 30 cm apart, and the time the mouse recognized the objects for 3 minutes was measured. […] The recognition index (%) is converted into the preference for new objects (time to recognize novel objects/total recognition time)×100.

[5] = system: male C57BL/6 mice administered with Escherichia coli; experiment: Y-maze task, Escherichia coli-induced model; settings: spontaneous alternation; E. coli model mice; donepezil 5 mg/kg
Protocol: In order to evaluate spatial cognitive ability, a Y-maze task was performed. In a Y-shaped maze that has a length of 40 cm, a width of 4 cm, and a height of 12 cm and is closed on all sides, three paths were designated as A, B, and C. Then, a mouse was placed in the center and observed for 8 minutes, and the total number of entries entered was recorded. If the mouse entered three different branches in turn, the alternation number was counted as 1. […] The alternation number is defined as entering all three in turn, and the calculation for evaluation of spatial cognitive function was performed using the following equation.
Spontaneous alternation (%)=(total number of alternation/(total number of entries-2))×100

In the case of `CNCCC(Oc1ccc(C(F)(F)F)cc1)c1ccccc1` (stereo not drawn) [Fluoxetine, fluoxetine], the “EPM test (%, time spent in open arm)” value [1] is reported as 9.8%, the “FST test (%, immobility time)” value [2] is reported as 32.1% and the “TST test (%, immbolity time)” value [3] is reported as 33.5%. The “Corticosterone in blood” value (corticosterone in blood) was 202.5 ng/mL.

With `COc1cc2c(cc1OC)C(=O)C(CC1CCN(Cc3ccccc3)CC1)C2` (stereo not drawn) [Donepezil, donepezil] the “NORT test (%)” value [4] was 62.2% and the “Y-maze task (%)” value [5] was 63.2%.
